According to the supplement of paper PMC10307832:

Tests used:
Test in all cases: relative viability (nuclei count vs DMSO), 5 days (fraction); higher = more cells survive
YM155 + Crizotinib = compound: COCC[n+]1c2c(n(Cc3cnccn3)c1C)C(=O)c1ccccc1C2=O [YM155] + C[C@@H](Oc1cc(-c2cnn(C3CCNCC3)c2)cnc1N)c1c(Cl)ccc(F)c1Cl [Crizotinib] (partner 1 µM)
Summary of the method: (§1)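 Lung cancer cell lines in 1536-well plates were dosed by pin tool the day after seeding, either with one drug alone or with a fixed anchor-drug dose plus five library-drug doses (not always all listed) in √10 steps. After 5 days, cells were fixed and their nuclei stained in one step (final 0.05% Triton X-100, 1% formaldehyde, 1 ug/ml Hoechst), then counted on 4× images. Relative viability is the nuclei count in treated wells divided by that in vehicle wells. Values are medians of duplicate plates.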

[1] = compound: CC(C)(C)c1cc(NC(=O)Nc2ccc(-c3cn4c(n3)sc3cc(OCCN5CCOCC5)ccc34)cc2)no1 [Quizartinib] + CC(=O)c1c(C)c2cnc(Nc3ccc(N4CCNCC4)cn3)nc2n(C2CCCC2)c1=O [Palbociclib] (partner 0.5 µM)
Summary of the method: as §1

Quizartinib + Navitoclax = compound: CC(C)(C)c1cc(NC(=O)Nc2ccc(-c3cn4c(n3)sc3cc(OCCN5CCOCC5)ccc34)cc2)no1 [Quizartinib] + CC1(C)CCC(c2ccc(Cl)cc2)=C(CN2CCN(c3ccc(C(=O)NS(=O)(=O)c4ccc(N[C@H](CCN5CCOCC5)CSc5ccccc5)c(S(=O)(=O)C(F)(F)F)c4)cc3)CC2)C1 [Navitoclax] (partner 0.5 µM)
Summary of the method: as §1

YM155 + Linsitinib = compound: COCC[n+]1c2c(n(Cc3cnccn3)c1C)C(=O)c1ccccc1C2=O [YM155] + C[C@]1(O)C[C@@H](c2nc(-c3ccc4ccc(-c5ccccc5)nc4c3)c3c(N)nccn32)C1 [Linsitinib] (partner 1 µM)
Summary of the method: as §1

LOU-NH91 showed a relative viability (YM155 + Crizotinib; first compound 0.002 µM) of 0.735, a relative viability (YM155 + Crizotinib; first compound 0.006325 µM) of 0.688 and a relative viability (YM155 + Crizotinib; first compound 0.02 µM) of 0.731. It also gave a relative viability (YM155 + Crizotinib; first compound 0.06325 µM) of 0.727, a relative viability ([1]; first compound 0.001 µM) of 0.59 and a relative viability ([1]; first compound 0.003162 µM) of 0.506. The relative viability ([1]; first compound 0.01 µM) was 0.547, the relative viability ([1]; first compound 0.03162 µM) was 0.577 and the relative viability ([1]; first compound 0.1 µM) was 0.567. It also gave a relative viability (Quizartinib + Navitoclax; first compound 0.001 µM) of 0.732, a relative viability (Quizartinib + Navitoclax; first compound 0.003162 µM) of 0.766 and a relative viability (Quizartinib + Navitoclax; first compound 0.01 µM) of 0.808. For the same cell line, the relative viability (Quizartinib + Navitoclax; first compound 0.03162 µM) was 0.562, the relative viability (Quizartinib + Navitoclax; first compound 0.1 µM) was 0.832 and the relative viability (YM155 + Linsitinib; first compound 0.002 µM) was 1.05. The relative viability (YM155 + Linsitinib; first compound 0.006325 µM) was 0.879, the relative viability (YM155 + Linsitinib; first compound 0.02 µM) was 0.97 and the relative viability (YM155 + Linsitinib; first compound 0.06325 µM) was 0.978.
